Measurements: US9090605B2, “Substituted 5-,6- and 7-membered heterocycles, medicaments containing such compounds, and their use” (Vitae Pharmaceuticals, Inc., priority 2010, dated 2015)

Molecular target: 11β-HSD1 (Homo sapiens, UniProt P28845)
Assay: Inhibition of a microsomal preparation of 11β-HSD1, scintillation proximity assay, microsomes from CHO cells overexpressing human 11β-HSD1 (biological test example 2)
Type: biochemical
Parameters: expressed in transfected cells; host or cells: CHO cells (microsomes isolated from them)
Settings: microsomes from CHO cells overexpressing human 11β-HSD1, SPA, [3H]cortisone, 90 minutes at room temperature; read-out: IC50, inhibitory activity on 11β-HSD 1
Protocol: All reactions were carried out at room temperature in 96 well clear flexible PET Microbeta plates (PerkinElmer). The assay begins by dispensing 49 μl of substrate solution [50 mM HEPES, pH 7.4, 100 mM KCl, 5 mM NaCl, 2 mM MgCl2, 2 mM NADPH and 160 nM [^3H]cortisone (1 Ci/mmol)] and mixing in 1 μL of the test compounds in dimethyl sulfoxide previously diluted in half-log increments (8 points) starting at 0.1 mM. After a 10 minute pre-incubation, 50 μL of enzyme solution containing microsomes isolated from CHO cells overexpressing human 11β-HSD1 (10-20 μg/ml of total protein) was added, and the plates were incubated for 90 minutes at room temperature. The reaction was stopped by adding 50 μl of the SPA beads suspension containing 10 μM 18β-glycyrrhetinic acid, 5 mg/ml protein A coated YSi SPA beads (GE Healthcare) and 3.3 μg/ml of anti-cortisol antibody (East Coast Biologics) in Superblock buffer (Bio-Rad). The plates were shaken for 120 minutes at room temperature, and the SPA signal corresponding to [^3H]cortisol was measured on a Microbeta plate reader.

11β-HSD1, sequence (P28845 whole entry): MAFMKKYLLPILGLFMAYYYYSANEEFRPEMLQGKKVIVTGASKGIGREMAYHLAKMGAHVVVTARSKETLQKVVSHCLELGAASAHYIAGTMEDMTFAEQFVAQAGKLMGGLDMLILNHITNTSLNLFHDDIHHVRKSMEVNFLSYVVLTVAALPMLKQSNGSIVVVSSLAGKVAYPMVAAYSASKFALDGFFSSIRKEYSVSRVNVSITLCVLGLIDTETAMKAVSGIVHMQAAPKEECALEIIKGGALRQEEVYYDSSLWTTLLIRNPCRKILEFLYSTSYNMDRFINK

| SMILES | IC50 [nM] |
| --- | --- |
| C[C@@H](c1ccc(-c2ccn(C3COC3)c(=O)c2)cc1)N1CC[C@](CC(C)(C)O)(c2ccccc2)OC1=O [Example 26, (S)-6-(2-hydroxy-2-methylpropyl)-3-((S)-1-{4-[1-(oxetan-3-yl)-2-oxo-1,2-dihydropyridin-4-yl]phenyl}ethyl)-6-phenyl-1,3-oxazinan-2-one] | 5.2 |
| C[C@@H](c1ccc(-c2ccn(C3CNC3)c(=O)c2)cc1)N1CC[C@](CC(C)(C)O)(c2ccccc2)OC1=O [Example 27, 3-((S)-1-{4-[1-(azetidin-3-yl)-2-oxo-1,2-dihydropyridin-4-yl]phenyl}ethyl)-(S)-6-(2-hydroxy-2-methylpropyl)-6-phenyl-1,3-oxazinan-2-one] | 27.4 |
| C[C@@H](c1ccc(-c2cnc(N3CCNC3=O)nc2)cc1)N1CC[C@](CC(C)(C)O)(c2ccccc2)OC1=O [Example 28, (S)-6-(2-hydroxy-2-methylpropyl)-3-((S)-1-{4-[2-(2-oxoimidazolidin-1-yl)pyrimidin-5-yl]phenyl}ethyl)-6-phenyl-1,3-oxazinan-2-one] | 8.4 |
| C[C@@H](c1ccc(-c2cnc(N3CCN(C)C3=O)nc2)cc1)N1CC[C@](CC(C)(C)O)(c2ccccc2)OC1=O [Example 29, (S)-6-(2-hydroxy-2-methylpropyl)-3-((S)-1-{4-[2-(3-methyl-2-oxoimidazolidin-1-yl)pyrimidin-5-yl]phenyl}ethyl)-6-phenyl-1,3-oxazinan-2-one] | 9.8 |
| C[C@@H](c1ccc(-c2cnc(N3CCCC3=O)nc2)cc1)N1CC[C@](CC(C)(C)O)(c2ccccc2)OC1=O [Example 30, (S)-6-(2-hydroxy-2-methylpropyl)-3-((S)-1-{4-[2-(2-oxopyrrolidin-1-yl)pyrimidin-5-yl)phenyl]ethyl}-6-phenyl-1,3-oxazinan-2-one] | 3.2 |
| C[C@@H](c1ccc(-c2ccc(N3CCC3)nn2)cc1)N1CC[C@](CC(C)(C)O)(c2ccccc2)OC1=O [Example 31, 3-((S)-1-{4-[6-(azetidin-1-yl)pyridazin-3-yl]phenyl}ethyl)-(S)-6-(2-hydroxy-2-methylpropyl)-6-phenyl-1,3-oxazinan-2-one] | 0.9 |
| C[C@@H](c1ccc(-c2cnc(N3CC(F)C3)nc2)cc1)N1CC[C@](CC(C)(C)O)(c2ccccc2)OC1=O [Example 32, 3-((S)-1-{4-[2-(3-fluoroazetidin-1-yl)pyrimidin-5-yl]phenyl}ethyl)-(S)-6-(2-hydroxy-2-methylpropyl)-6-phenyl-1,3-oxazinan-2-one] | 0.7 |
| C[C@@H](c1ccc(-c2cnc(N3CCC3)nc2)cc1)N1CC[C@](CC(C)(C)O)(c2ccccc2)OC1=O [Example 34, 3-((S)-1-{4-[2-(azetidin-1-yl)pyrimidin-5-yl)phenyl]ethyl}-(S)-6-(2-hydroxy-2-methylpropyl)-6-phenyl-1,3-oxazinan-2-one] | 1 |
| C[C@@H](c1ccc(-c2cnc(N3CC(O)C3)nc2)cc1)N1CC[C@](CC(C)(C)O)(c2ccccc2)OC1=O [Example 35, (S)-6-(2-hydroxy-2-methylpropyl)-3-((S)-1-{4-[2-(3-hydroxyazetidin-1-yl)pyrimidin-5-yl]phenyl}ethyl)-6-phenyl-1,3-oxazinan-2-one] | 2.8 |
| C[C@@H](c1ccc(-c2cnc(-n3ccccc3=O)s2)cc1)N1CC[C@](CC(C)(C)O)(c2ccccc2)OC1=O [Example 36, (S)-6-(2-hydroxy-2-methylpropyl)-3-((S)-1-{4-[2-(2-oxopyridin-1 (2H)-yl)thiazol-5-yl]phenyl}ethyl)-6-phenyl-1,3-oxazinan-2-one] | 0.8 |
| C[C@@H](c1ccc(-c2csc(-n3ccccc3=O)n2)cc1)N1CC[C@](CC(C)(C)O)(c2ccccc2)OC1=O [Example 37, (S)-6-(2-hydroxy-2-methylpropyl)-3-((S)-1-{4-[2-(2-oxopyridin-1(2H)-yl)thiazol-4-yl]phenyl}ethyl)-6-phenyl-1,3-oxazinan-2-one] | 0.5 |
| C[C@@H](c1ccc(-c2ccnc(N3CCOCC3)n2)cc1)N1CC[C@](CC(C)(C)O)(c2ccccc2)OC1=O [Example 38, (S)-6-(2-hydroxy-2-methylpropyl)-3-{(S)-1-[4-(2-morpholinopyrimidin-4-yl)phenyl]ethyl}-6-phenyl-1,3-oxazinan-2-one] | 2.3 |
| C[C@@H](c1ccc(-c2cccc(N3CCCCC3=O)n2)cc1)N1CC[C@](CC(C)(C)O)(c2ccccc2)OC1=O [Example 39, (S)-6-(2-hydroxy-2-methylpropyl)-3-((S)-1-{4-[6-(2-oxopiperidin-1-yl)pyridin-2-yl]phenyl}ethyl)-6-phenyl-1,3-oxazinan-2-one] | 3.7 |
| C[C@@H](c1ccc(-c2cccc(N3CCOCC3)n2)cc1)N1CC[C@](CC(C)(C)O)(c2ccccc2)OC1=O [Example 40, (S)-6-(2-hydroxy-2-methylpropyl)-3-{(S)-1-[4-(6-morpholinopyridin-2-yl)phenyl]ethyl}-6-phenyl-1,3-oxazinan-2-one] | 1.1 |
| C[C@@H](c1ccc(-c2cccc(-n3ccccc3=O)n2)cc1)N1CC[C@](CC(C)(C)O)(c2ccccc2)OC1=O [Example 41, (S)-6-(2-hydroxy-2-methylpropyl)-3-((S)-1-{4-[6-(2-oxopyridin-1 (2H)-yl)pyridin-2-yl]phenyl}ethyl)-6-phenyl-1,3-oxazinan-2-one] | 2.3 |
| C[C@@H](c1ccc(-c2ccc(C3(C(N)=O)CC3)nc2)cc1)N1CC[C@](CC(C)(C)O)(c2ccccc2)NC1=O [Example 49, 1-[5-(4-{(S)-1-[(S)-4-(2-Hydroxy-2-methyl-propyl)-2-oxo-4-phenyl-tetrahydro-pyrimidin-1-yl]-ethyl}-phenyl)-pyridin-2-yl]-cyclopropanecarboxylic acid amide] | 1.5 |
| C[C@@H](c1ccc(-c2ccc(=O)n(C3COC3)c2)cc1)N1CC[C@](CC(C)(C)O)(c2ccccc2)OC1=O [Example 58, (S)-6-(2-Hydroxy-2-methyl-propyl)-3-{(S)-1-[4-(1-oxetan-3-yl-6-oxo-1,6-dihydro-pyridin-3-yl)-phenyl]-ethyl}-6-phenyl-[1,3]oxazinan-2-one] | 4.3 |
| C[C@@H](c1ccc(-c2ccc(C3(C(N)=O)CC3)nc2)cc1)N1CC[C@@](CC2CC2)(CC(C)(C)O)OC1=O [Example 59, 1-[5-(4-{(S)-1-[(S)-6-Cyclopropylmethyl-6-(2-hydroxy-2-methyl-propyl)-2-oxo-[1,3]oxazinan-3-yl]-ethyl}-phenyl)-pyridin-2-yl]-cyclopropanecarboxylic acid amide] | 6.5 |
